Laboratory results from publication PMC8185074, “Anchor extension: a structure-guided approach to design cyclic peptides targeting enzyme active sites” (Nature Communications, 2021).
Peptide text beside a SMILES is read from it.

Target: T1, HDAC2 (Homo sapiens, UniProt Q92769)
T1 construct: purchased Reaction Biology Corporation (assay run by the CRO)
Assay: Initial HDAC2 IC50 estimate (BPS Biosciences HDAC fluorogenic assay kit)
Type: biochemical
Settings: HDAC2 activity (initial activity), Supplementary Dataset 2
Experimental: Initial IC50 values were estimated using HDAC fluorogenic assay kits from BPS Biosciences (HDAC2, HDAC4, and HDAC6) following the protocol described in the kit. All the measures were performed in duplicates or triplicates. These measurements were done either on full range of concentrations (1:10 dilution from 1 µM to 100 pM) or on two concentrations only (20 nM and 200 nM) as an estimate of the range. […] Source Data are provided as a Source Data file.

T1 sequence (Q92769 whole entry): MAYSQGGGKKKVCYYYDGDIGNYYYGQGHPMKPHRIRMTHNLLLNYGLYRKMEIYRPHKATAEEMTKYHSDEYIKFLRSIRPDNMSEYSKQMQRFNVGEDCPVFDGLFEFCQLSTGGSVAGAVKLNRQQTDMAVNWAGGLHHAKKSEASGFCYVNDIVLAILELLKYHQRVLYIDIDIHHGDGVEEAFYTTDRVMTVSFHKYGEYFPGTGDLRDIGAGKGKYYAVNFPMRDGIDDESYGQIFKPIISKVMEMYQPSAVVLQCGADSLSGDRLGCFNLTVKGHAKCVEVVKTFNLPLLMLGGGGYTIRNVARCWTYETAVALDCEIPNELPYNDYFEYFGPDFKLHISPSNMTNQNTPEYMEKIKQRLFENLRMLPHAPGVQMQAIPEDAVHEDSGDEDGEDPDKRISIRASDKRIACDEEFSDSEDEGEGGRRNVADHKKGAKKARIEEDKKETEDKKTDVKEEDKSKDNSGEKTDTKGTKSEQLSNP

| Structure (SMILES) | IC50 [µM] |
| --- | --- |
| C[C@H]1NC(=O)[C@H](CCCCCS)NC(=O)[C@H](CCN)NC(=O)[C@@H](CC(N)=O)NC(=O)[C@H](CO)NC(=O)[C@H](CC(=O)O)NC(=O)[C@@H](CC(=O)O)NC(=O)[C@@H]2CCCN2C(=O)[C@H](Cc2ccccc2)NC1=O [des3.5.1, SHA-dAla-Phe-Pro-dAsp-Asp-Ser-dAsn-Dab] (HELM PEPTIDE1{D.S.[dN].[Dab].[O=C([C@H](CCCCCS)N[*:1])[*:2]].[dA].F.P.[dD]}$PEPTIDE1,PEPTIDE1,1:R1-9:R2$$$V2.0) | > 1 |
| CC(C)C[C@H]1NC(=O)[C@H](Cc2c[nH]c3ccccc23)NC(=O)[C@H](CCCCCS)NC(=O)[C@@H](Cc2ccc(O)cc2)NC(=O)[C@@H]([C@H](C)O)NC(=O)[C@H](Cc2c[nH]cn2)NC(=O)CNC(=O)[C@H]2CCCN2C(=O)[C@@H](CO)NC1=O [des2.2.2, SHA-Trp-dLeu-dSer-dPro-Gly-His-dThr-dTyr] (HELM PEPTIDE1{G.H.[dT].[dY].[O=C([C@H](CCCCCS)N[*:1])[*:2]].W.[dL].[dS].[dP]}$PEPTIDE1,PEPTIDE1,1:R1-9:R2$$$V2.0) | 0.5 |
| N=C(N)NCCC[C@@H]1NC(=O)[C@@H](CCCNC(=N)N)NC(=O)[C@H]2CCCN2C(=O)[C@@H](CC(N)=O)NC(=O)[C@H](Cc2ccc(O)cc2)NC(=O)[C@H](CCCCCS)NC(=O)[C@H](CCc2ccccc2)NC(=O)[C@@H](CCCCN)NC(=O)[C@H](CC(=O)O)NC1=O [des3.4.0, SHA-Tyr-dAsn-dPro-dArg-Arg-Asp-dLys-C27] (HELM PEPTIDE1{D.[dK].[O=C([C@H](CCc1ccccc1)N[*:1])[*:2]].[O=C([C@H](CCCCCS)N[*:1])[*:2]].Y.[dN].[dP].[dR].R}$PEPTIDE1,PEPTIDE1,1:R1-9:R2$$$V2.0) | 0.01 to 0.1 |
